Measurements: patent publication US20240341301A1 (The Regents of the University of Michigan, priority 2023, published 2024)

Experiments:
[1] = tested on: transplanted murine donor hearts; experiment: Murine heterotopic syngeneic heart transplantation; assay type: in vivo, mouse
Experimental: Cardiac grafts procured from WT C57Bl/6J mice following arrest with cold (4° C.) HTK±VPA were transplanted into the right neck of sex-matched syngeneic C57BL/6J recipient mice following 16 hours of cold (4° C.) preservation in corresponding HTK±VPA solution as previously described (59). A cuff technique was used to connect the recipient right common carotid artery and right external jugular vein to the donor ascending aorta and pulmonary artery, respectively. Following reperfusion in the recipient, successful grafts were expected to resume a regular heartbeat. At 24 hours after reperfusion, the surgical incision was reopened and a small conductance catheter was introduced into the LV to measure contractility and relaxation.
Blood from recipient mice was centrifuged at 3000 g in 4° C. for 10 minutes. Serum was aliquoted and snap-frozen. Serum cTnT, cTnI, TNFα, IL-6, IP10 and MIG concentrations were measured using Sigma-Aldrich MILLIPLEX kits (Cat. No.: MCYTMAG, MCVD2MAG). Pig arterial perfusate was centrifuged at 3000 g in 4° C. for 10 minutes. The abundance of cTnI, IL-1β, IL-6 and TNF-α was detected using Sigma MILLIPLEX kit (Cat. No.: MCVD2MAG, PCYTMAG).

[2] = tested on: murine donor hearts; experiment: Murine ex-vivo heart perfusion after cold preservation; set-up: species or system mouse
Experimental: Male and female WT or Irg1^−/− mice (Jackson laboratories, Bar Harbor, ME) were anesthetized intraperitoneally with 80 mg/kg ketamine and 5 mg/kg xylazine, anticoagulated with heparin (2,000 U/kg iv), and the heart was rapidly exposed through a sternal incision. The aorta was cannulated and retrograde perfused in-situ with HTK solution±HDAC inhibitors. After cannulation, the heart dissected free, the left atrium was opened. For 4-OI (Cayman Chemical, 25374) experiments, donor mice were treated 4-OI (dissolved in 40% β-Cyclodextrin, 50 mg/kg intraperitoneally) or vehicle control (40% β-Cyclodextrin intraperitoneally) 2 hours prior to donor heart procurement. After dissection, the heart was stored at 4° C. with HTK or HTK with VPA for a pre-designated duration. The hearts were then mounted on a Radnoti mouse Langendorff apparatus (ADInstruments inc., Colorado Springs, CO) in constant-pressure mode (˜70 mmHg) with a modified Krebs-Henseleit buffer (KHB; in mM: 118 NaCl, 4.7 KCl, 1.25 CaCl2), 1.66 MgSO4, 24.88 NaHCO3, 1.18 KH2PO4, 5.55 glucose, and 2.0 Na-pyruvate). A balloon was placed in the LV through the left atrium and left ventricular diastolic pressure was set to ˜8 mmHg at initiation. The heart was perfused with modified Krebs-Henseleit buffer for 30 min to stabilize and then hemodynamics measurements were recorded. Myocardial temperature was maintained at 37° C. LabChart software (ADInstruments inc., Colorado Springs, CO) was used to record ventricular function, perfusion pressures, cardiac chamber temperature and myocardial temperature. After perfusing the heart for 60 minutes, the heart was removed from the ex-vivo perfusion apparatus for specimen collection. Tissue was immediately placed in liquid N2 or treated with 4% formalin.

[3] = tested on: H3K9 and H3K27 histone acetylation; experiment: Histone acetylation Western blot in cold-preserved human donor hearts; conditions: HTK containing VPA, cold (4° C.) static preservation 8 h
Experimental: Heart procurement for both human and pigs were performed as follows. A sternotomy is performed under general anesthesia. The pericardium is then opened to create a pericardial cradle for the heart. Heparin (300U/kg) administered through the right atrium or in a peripheral vein. After waiting 3 minute for adequate anticoagulation from heparin, a 9 Fr antegrade plegia infusion catheter is placed in the ascending aorta. Approximately 1 liter of autologous donor arterial blood is then collected into a collection bottle containing heparin. […] Subsequently, the ascending aorta is cross-clamped distal to the cardioplegia catheter and 1 liter of cold (4° C.) HTK solution is infused into the coronaries at a perfusion pressure of ˜80 mmHg to induce mechanical arrest. After excising the heart completely, it is transported to the back-table for infusion of 2 liters of HTK±VPA solution. After completion, the heart is stored in a solution identical to the perfusate at 4° C. on ice.
Pig hearts underwent ex-vivo perfusion after preservation for 4 or 10 hours. Approval for human heart procurement was obtained from the University of Michigan Institutional Review Board (HUM00131275). Human donor hearts from deceased brain death donors were procured as per standard clinical protocols from the Gift of Life Michigan (GOLM) organ procurement facility. […]

[4] = 16 h cold preservation, 24 h reperfusion in recipient
[5] = recipient serum after transplantation

In the case of `CCCC(CCC)C(=O)O` [VPA, 2-Propyl-pentanoic acid], the “improvement of in vivo donor heart contractility (max dP/dt) compared to standard HTK solution alone” value [1, 4] is reported as 265%, the “improvement of in vivo donor heart relaxation (min dP/dt) compared to standard HTK solution alone” value [1, 4] is reported as 250% and the “cell death in transplanted heart tissue” value ([1]; TUNEL) is reported as “reduced”. The “serum concentration of IL-6” value [1, 5] was “reduced”, the “serum concentration of IP-10” value [1, 5] was “reduced” and the “serum concentration of MIG” value [1, 5] was “reduced”. The “serum concentration of TNFα” value [1, 5] was “reduced”, the “serum troponin I” value [1, 5] was “reduced” and the “serum troponin T” value [1, 5] was “reduced”. The leukocyte infiltration ([1]; transplanted heart tissue) was “reduced”, the ex vivo contractility ([2]; HTK±VPA, cold preservation up to 16 hours) was “improve” and the “cardioprotective effects of VPA with deficiency in Irg1” value ([2]; Irg1−/− hearts, ex vivo perfusion and syngeneic transplant models) was “reduced”. The “effect of conditional Irg1 deficiency in myeloid cells on VPA's cardioprotective effects on contractility or relaxation” value ([2]; LysM-Cre hearts, ex vivo perfusion model) was “did not impact”, the “VPA concentration with peak cardioprotective effect” value ([2]; titration 5, 10 and 20 mM in HTK, 16 hours preservation) was 10 mM and the “histone acetylation (H3K9, H3K27) after prolonged cardiac preservation” value [3] was “maintained”.
